In patent US20250230151A1, “COMPOUNDS FOR CANCERS DRIVEN BY BRAF MUTATION” (THE BOARD OF TRUSTEES OF THE UNIVERSITY OF ILLINOIS, priority 2021, published 2025):
Read-outs that look alike come from different tables or passages of the source. Values belong to the molecule of their own block, whether it stands above or below them.

Key:
[1] = Blood-brain barrier penetrance, brain and serum levels after single IV injection; assay type: in vivo; conditions: CD-1, mouse, 60 min after single 25 mg/kg IV injection, read-out: brain-to-serum ratio
Experimental: (§1) Blood-brain barrier penetrance P-gp in vivo assays. All experimental procedures were reviewed and approved by the University of Illinois Institutional Animal Care and Use Committee (Protocol number: 19191). CD-1 mice were purchased from Charles River and acclimated for 4-7 days before use. Mice were administered elacridar or its vehicle at 2.5 mg/kg via lateral tail vein injection. Thirty-minutes post injection, mice were then treated with compounds at 25 mg/kg intravenously now in the other tail vein. At each time point, mice were sacrificed and blood was collected by lacerating the right auricle with iris scissors. An 18-gauge angiocatheter was inserted through the left ventricle, and all residual circulatory volume was removed by perfusing 0.9% saline solution via an analog peristaltic pump. Brains were harvested from the cranial vault and flash frozen. Blood samples were centrifuged at 13,000 ref for 10 minutes and the supernatant serum was stored at −80° C. until analysis. Brain samples were homogenized in ice-cold methanol and centrifuged first at 2000 ref for three minutes and then 13,000 ref for ten minutes and supernatant and tissue debris were separated and stored at −80° C. The resultant supernatant and serum were analyzed by LC-MS/MS to determine compound concentrations. […] All compounds were administered at 5 mL/kg.

[2] = Pharmacokinetics in CD-1 mice, serum by LC-MS/MS; assay type: in vivo, mouse
[3] = test system: HCT116 cells; test: 72-hour cell viability assay (Alamar Blue), HCT116; assay type: cell-based
Experimental: (§2) Cell Culture and reagents. All cell lines were grown in a 37° C., 5% CO2, humidified environment, in media containing 1% penicillin/streptomycin. Cell culture conditions are as follows: MDCK cells transfected with MDR1 (or ABCB1) were obtained from the Netherlands Cancer Institute (Amsterdam, The Netherlands) and maintained in DMEM with 10% fetal bovine serum (FBS, Gemini). Traditional cell lines A375, CHL-1, B16F10, and U118MG were grown in DMEM with 10% FBS, SK-MEL-28, U87 and T98G in EMEM with 10% FBS, AM-38 in EMEM with 20% HI-FBS (Gibco), HT29 in McCoy's 5A with 10% FBS, HCT116 in RPMI with 10% FBS. Compounds were dissolved in DMSO (1% final concentration, Sigma-Aldrich) for cell culture studies.
(§3) Cell viability assays. Cells were harvested, seeded in a 96-well plate and allowed to adhere overnight. Compound was added to each well in DMSO (1% final concentration). Cells were incubated for 72 hours before viability was assessed by the Alamar Blue Assay. Raptinal ([…]) was used as a dead control.

[4] = test system: MAPK signaling (phospho-MEK1/2, phospho-ERK1/2) in AM-38 cells; test: Immunoblotting of MEK1/2 and ERK1/2 phosphorylation, AM-38; assay type: cell-based; conditions: AM-38, 1 h of treatment
Experimental: Immunoblotting. Cells were lysed using RIPA buffer containing phosphatase (BioVision) and protease inhibitor cocktail (Calbiochem). Protein concentration was determined using the BCA assay (Pierce). Cell lysates containing […] of protein were loaded into each lane of 4% to 20% gradient gels (Bio-Rad) for SDS-PAGE. Proteins were transferred onto PDVF membrane for Western blot analysis. Blots were blocked with BSA for one hour followed by incubation with primary antibody overnight (dilution according to manufacturer's protocols), and then secondary antibody was incubated for one hour. Blots were then imaged with a ChemiDoc Touch (Bio-Rad) after incubation with SuperSignal West Pico Solution (ThermoFischer) following manufacturer's protocols. All antibodies were purchased from Cell Signaling Technology: p-ERK (9101S), ERK (4695S), p-MEK (9121S), MEK (8727S), vinculin (13901S) Rabbit IgG-HRP (7074), […] (5125).

[5] = test system: cell lines with WTBRAF; test: Cell viability, cell lines with WT BRAF; assay type: cell-based
Experimental: as §2, §3

[6] = test system: AM-38 cells; test: 72-hour cell viability assay (Alamar Blue), AM-38; assay type: cell-based; conditions: glioma
Experimental: as §2, §3

[7] = biological target: T1, P-gp (Mus musculus, UniProt P21447); test: P-gp in vivo assay (elacridar pretreatment); conditions: for enhancement of BBB penetrance by P-gp inhibition: elacridar 2.5 mg/kg, compound 25 mg/kg IV
T1 construct: tissue Charles River (CD-1 mice); host or cells: living CD-1 mice; blood-brain barrier / brain
T1 sequence (P21447 whole entry): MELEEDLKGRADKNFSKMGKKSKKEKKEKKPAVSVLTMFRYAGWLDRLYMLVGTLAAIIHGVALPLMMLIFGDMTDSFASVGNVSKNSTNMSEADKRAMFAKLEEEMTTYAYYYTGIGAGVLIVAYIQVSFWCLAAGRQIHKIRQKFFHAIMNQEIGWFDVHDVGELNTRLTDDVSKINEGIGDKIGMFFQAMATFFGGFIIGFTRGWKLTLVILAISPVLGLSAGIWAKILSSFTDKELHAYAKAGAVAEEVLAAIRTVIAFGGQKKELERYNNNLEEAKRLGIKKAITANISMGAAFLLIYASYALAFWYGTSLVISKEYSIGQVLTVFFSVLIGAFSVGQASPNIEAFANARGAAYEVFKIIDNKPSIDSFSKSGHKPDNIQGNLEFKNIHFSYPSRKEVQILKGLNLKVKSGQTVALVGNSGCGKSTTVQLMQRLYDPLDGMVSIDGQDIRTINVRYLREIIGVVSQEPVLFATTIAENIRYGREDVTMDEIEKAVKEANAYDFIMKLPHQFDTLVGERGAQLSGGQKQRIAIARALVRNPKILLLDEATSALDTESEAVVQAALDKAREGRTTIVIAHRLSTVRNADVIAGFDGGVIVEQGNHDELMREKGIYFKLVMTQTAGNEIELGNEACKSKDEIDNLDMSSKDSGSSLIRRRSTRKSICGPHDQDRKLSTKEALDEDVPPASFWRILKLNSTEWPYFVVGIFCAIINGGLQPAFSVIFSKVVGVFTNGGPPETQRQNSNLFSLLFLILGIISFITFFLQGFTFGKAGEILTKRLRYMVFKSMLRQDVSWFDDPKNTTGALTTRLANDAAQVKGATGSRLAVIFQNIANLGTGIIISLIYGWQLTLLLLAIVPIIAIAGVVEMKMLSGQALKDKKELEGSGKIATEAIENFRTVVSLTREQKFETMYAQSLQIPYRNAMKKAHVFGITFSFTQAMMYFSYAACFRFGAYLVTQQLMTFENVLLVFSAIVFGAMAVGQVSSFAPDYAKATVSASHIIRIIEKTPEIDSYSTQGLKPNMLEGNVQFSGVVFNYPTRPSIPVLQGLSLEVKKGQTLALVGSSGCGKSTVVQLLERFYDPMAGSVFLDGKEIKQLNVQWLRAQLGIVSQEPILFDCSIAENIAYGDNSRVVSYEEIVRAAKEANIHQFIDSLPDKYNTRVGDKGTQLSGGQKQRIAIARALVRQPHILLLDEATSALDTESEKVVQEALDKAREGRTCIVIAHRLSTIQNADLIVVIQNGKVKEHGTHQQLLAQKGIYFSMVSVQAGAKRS
Experimental: Actionability in animals. […] At each time point, blood and brain were harvested, and compound concentrations in each compartment were quantified.
In this experiment, brain-to-blood ratios of P-gp substrates […] with the P-gp inhibitor compared to vehicle, while those of non-substrates will remain the same.
as §1, with “All experimental procedures were reviewed and approved by the University of Illinois Institutional Animal Care and Use Committee (Protocol number: 19191).” left out

[8] = test system: A375 melanoma cells intracranially implanted; test: A375 intracranial mouse model of melanoma metastasis; assay type: in vivo; conditions: 50 mg/kg IP once a day, two 5-day cycles, 10 doses
Experimental: Number of mice per cohort n>3. […] (C) Evaluation of everafenib in an intracranial mouse model. 50,000 A375 melanoma cells were intracranially implanted into 7-week old female athymic nude mice. Five days after inoculation, mice were treated with the vehicle or 50 mg/kg of dabrafenib or everafenib intraperitoneal (IP) once a day for 5 days. After 2 days off, another five daily doses were administered, a total of 10 treatments in the model. Cells were tested to be free of pathogens prior to inoculation. […] Number of mice per cohort=6. Statistical significance was determined by a two-tailed log-rank (Mantel-Cox) test. **P<0.01 ***P<0.001 ****P<0.0001.
Such a model has been developed using intracranial implantation of the A375 melanoma cell line, and thus, this macro-metastatic model via injection of A375 cells to the mouse forebrain was used to assess everafenib and dabrafenib head-to-head. In the experiment, mice were intracranially implanted with A375 cells and then 5 days later were treated with 50 mg/kg of dabrafenib or everafenib (two cycles of once-per-day for 5 days via IP injection, a total of 10 doses).
In vivo efficacy model. […] Human melanoma A375 cells were intracranially implanted in 7-week-old female athymic nude mice (50,000 cells/mouse). Cells were tested to be free of pathogens prior to inoculation. […]

[9] = test system: melanoma brain metastatic lesions; conditions: combined with trametinib, clinical trials; cited from earlier work
[10] = biological target: T2, P-gp (Homo sapiens, UniProt P08183); conditions: background statement on dabrafenib; cited from earlier work
T2 construct: host or cells: MDCK (MDR1-MDCK)
T2 sequence (P08183 whole entry): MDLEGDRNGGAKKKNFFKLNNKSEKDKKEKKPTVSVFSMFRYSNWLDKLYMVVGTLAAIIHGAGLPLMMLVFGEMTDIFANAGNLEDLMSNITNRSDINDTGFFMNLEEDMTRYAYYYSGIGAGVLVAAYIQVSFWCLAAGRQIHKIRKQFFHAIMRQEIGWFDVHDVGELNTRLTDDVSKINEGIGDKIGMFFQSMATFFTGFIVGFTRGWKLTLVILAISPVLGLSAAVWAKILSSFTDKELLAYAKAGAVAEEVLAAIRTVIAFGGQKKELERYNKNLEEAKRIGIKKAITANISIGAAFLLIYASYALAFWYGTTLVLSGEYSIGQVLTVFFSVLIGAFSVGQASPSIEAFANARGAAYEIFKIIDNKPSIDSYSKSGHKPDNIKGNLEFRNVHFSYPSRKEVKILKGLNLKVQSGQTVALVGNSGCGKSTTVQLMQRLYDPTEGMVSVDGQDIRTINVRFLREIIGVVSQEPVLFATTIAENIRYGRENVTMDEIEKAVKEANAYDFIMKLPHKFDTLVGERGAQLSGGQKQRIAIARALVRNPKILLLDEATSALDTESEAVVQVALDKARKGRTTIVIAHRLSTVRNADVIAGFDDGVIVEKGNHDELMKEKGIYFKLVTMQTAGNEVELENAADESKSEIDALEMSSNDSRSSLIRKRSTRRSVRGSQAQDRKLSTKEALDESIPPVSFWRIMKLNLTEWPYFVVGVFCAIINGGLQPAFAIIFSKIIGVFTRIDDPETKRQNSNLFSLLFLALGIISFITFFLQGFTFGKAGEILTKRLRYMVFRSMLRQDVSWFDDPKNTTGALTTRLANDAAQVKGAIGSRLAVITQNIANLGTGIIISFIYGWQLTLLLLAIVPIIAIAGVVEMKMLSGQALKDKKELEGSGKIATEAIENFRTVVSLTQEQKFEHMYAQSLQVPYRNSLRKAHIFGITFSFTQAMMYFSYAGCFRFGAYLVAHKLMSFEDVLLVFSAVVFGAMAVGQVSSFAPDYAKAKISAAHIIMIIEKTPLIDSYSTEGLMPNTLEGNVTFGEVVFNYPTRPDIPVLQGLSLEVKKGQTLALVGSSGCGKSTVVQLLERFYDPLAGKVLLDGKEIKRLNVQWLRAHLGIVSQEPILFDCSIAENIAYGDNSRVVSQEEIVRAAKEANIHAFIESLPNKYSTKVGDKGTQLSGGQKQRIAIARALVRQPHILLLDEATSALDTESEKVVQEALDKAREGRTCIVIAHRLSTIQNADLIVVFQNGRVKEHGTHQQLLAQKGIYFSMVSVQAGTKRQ

[11] = 20 mg/kg IP, CD-1 mice, one-compartment model, listed as 261
[12] = 20 mg/kg IP, CD-1 mice, one-compartment model, listed as everafenib
[13] = CD-1, mouse, serum, intraperitoneal, 20 mg/kg IP, read-out: [Drug] serum concentration
[14] = CD-1, mouse, serum, 25 mg/kg IV, read-out: [Drug] serum concentration
[15] = Homo sapiens, HCT-116, WT BRAF, colon, read-out: HCT116 (WT) IC50
[16] = Homo sapiens, HCT-116, WT BRAF, read-out: HCT116 IC50
[17] = Homo sapiens, AM-38, V600E BRAF

Compound: CCCS(=O)(=O)Nc1cc(Cl)cc(-c2nc(C(C)(C)C)sc2-c2ccnc(N)n2)c1F [6-261, N-(3-(5-(2-aminopyrimidin-4-yl)-2-(tert-butyl)thiazol-4-yl)-5-chloro-2-fluorophenyl)propane-1-sulfonamide]
- Kp at 60 min [1]: 0.286
- AUC [2, 11]: 503964.63 ng·min/mL
- CL [2, 11]: 39.69 mL/min/kg
- Cmax [2, 11]: 9364.7721 ng/mL
- T1/2 [2, 11]: 37.3 min
- Vss [2, 11]: 2.6929321 L/kg
- CL [2, 12]: 39.7 mL/min/kg
- Vss [2, 12]: 2.6929 L/kg
- concentration at 0 min ([2]; CD-1, mouse, serum, intraperitoneal, 20 mg/kg IP, 0 min, read-out: [Drug] serum concentration): 0 nM
- concentration at 15 min [2, 13]: 12.9 ± 0.557 µM
- concentration at 30 min ([2]; CD-1, mouse, serum, intraperitoneal, 20 mg/kg IP, 30 min, read-out: [Drug] serum concentration): 9.46 ± 0.621 µM
- concentration at 45 min ([2]; CD-1, mouse, serum, intraperitoneal, 20 mg/kg IP, 45 min, read-out: [Drug] serum concentration): 6.7 ± 0.122 µM
- concentration at 60 min [2, 13]: 5.59 ± 0.167 µM
- concentration at 120 min ([2]; CD-1, mouse, serum, intraperitoneal, 20 mg/kg IP, 120 min, read-out: [Drug] serum concentration): 2.55 ± 0.194 µM
- concentration at 240 min ([2]; CD-1, mouse, serum, intraperitoneal, 20 mg/kg IP, 240 min, read-out: [Drug] serum concentration): 0.581 ± 0.118 µM
- concentration at 480 min ([2]; CD-1, mouse, serum, intraperitoneal, 20 mg/kg IP, 480 min, read-out: [Drug] serum concentration): 0.014 ± 0.00207 µM
- concentration at 960 min ([2]; CD-1, mouse, serum, intraperitoneal, 20 mg/kg IP, 960 min, read-out: [Drug] serum concentration): 0 nM
- half-life ([2]; CD-1, mouse, serum, ip, 20 mg/kg, 20 mg/kg IP, CD-1 mice, one-compartment model): 37.3 min
- AUC ([2]; CD-1, mouse, serum, ip, 20 mg/kg, 20 mg/kg IP, CD-1 mice, one-compartment model, read-out: AUC (converted)): 504000 ng·min/mL
- Cmax ([2]; CD-1, mouse, serum, ip, 20 mg/kg, 20 mg/kg IP, CD-1 mice, one-compartment model, read-out: Cmax): 9360 ng/mL
- concentration at 15 min [2, 14]: 16.4 ± 0.719 µM
- concentration at 60 min [2, 14]: 6.56 ± 0.29 µM
- IC50 [3, 15]: > 1000 nM
- IC50 [3, 16]: > 1000 nM
- inhibition of MAPK signaling (MEK1/2 and ERK1/2 phosphorylation) [4]: strongly inhibited
- IC50 [5]: > 1000 nM
- activity against glioma cell-lines with WTBRAF (U118MG, T98G, U87) ([5]; cell culture): no activity
- IC50 [6, 17]: 8.5 ± 1.2 nM
- effect of P-gp inhibitor (elacridar) co-treatment on brain exposure ([7]; result in words): did display potentiation
- median survival [8]: 50.5 days

- Kp at 60 min [1]: 0.0014 to 0.0069
- IC50 [3, 15]: 2100 ± 456 nM
- IC50 [3, 16]: 2100 ± 456 nM
- enhancement of BBB penetrance by P-gp inhibition ([7]; 15 min): 1.5 fold
- enhancement of BBB penetrance by P-gp inhibition ([7]; 60 min): 2.5 fold
Compound: CCCS(=O)(=O)Nc1cc(Cl)cc(-c2nc(C(C)(C)C)sc2-c2ccnc(NCCCCC(=O)O)n2)c1F [6-263, 5-((4-(2-(tert-butyl)-4-(5-chloro-2-fluoro-3-(propylsulfonamido)phenyl)thiazol-5-yl)pyrimidin-2-yl)amino)pentanoic acid]
- inhibition of MAPK signaling (MEK1/2 and ERK1/2 phosphorylation) [4]: strongly inhibited
- IC50 [5]: > 1000 nM
- IC50 [6, 17]: 93.2 ± 14.1 nM

Compound: CC(C)(C)c1nc(-c2cccc(NS(=O)(=O)c3c(F)cccc3F)c2F)c(-c2ccnc(N)n2)s1 [Dabrafenib, reference compound]
- duration of intracranial response [9]: 6.5 months
- IC50 ([3]; WT BRAF, read-out: HCT116 IC50): > 1000 nM
- IC50 ([6]; V600E BRAF): 6.84 ± 0.84 nM
- enhancement of BBB penetrance by P-gp inhibition ([7]; 15 min): 4.3 fold
- enhancement of BBB penetrance by P-gp inhibition ([7]; 60 min): 5.8 fold
- median survival [8]: 39 days
- efflux ratio (recognized by P-gp) [10]: 11.4-18.3
